Assay results: publication PMC3125419 (Journal of acquired immune deficiency syndromes (1999), 2011)
Where two headings read alike, the source gives them in different places. Marks after values point to notes of the source that are not given here.

Experiments:
[1] = cited from earlier work
[2] = clinical; conditions: female, human, in vivo
[3] = human, in vivo
[4] = tested on: HIV-1 RNA; test: Plasma viral load and infant HIV infection status; type: in vivo, human; conditions: for Undetectable (<20, 50, 75 or 400) plasma HIV-1 RNA, N (%): atazanavir/ritonavir-based regimen
[5] = female, human, in vivo
[6] = One-compartment model with first-order absorption and elimination; type: in vivo, human; conditions: median
[7] = clinical; conditions: female, human, in vivo; remark: listed apart in the source
[8] = with tenofovir, median (range), N=19

Compound: Cc1cccc(C)c1OCC(=O)N[C@@H](Cc1ccccc1)[C@@H](O)C[C@H](Cc1ccccc1)NC(=O)[C@H](C(C)C)N1CCCNC1=O [lopinavir]
- AUC reduction during the third trimester ([1]; capsules at standard dosing (lopinavir 400 mg/ritonavir 100 mg twice daily)): 50%

Compound: CC(C)c1nc(CN(C)C(=O)N[C@H](C(=O)N[C@@H](Cc2ccccc2)C[C@H](O)[C@H](Cc2ccccc2)NC(=O)OCc2cncs2)C(C)C)cs1 [Ritonavir]
- Tmax [2]: 6 h
- Tmax ([3]; female): 4 (2 – 4) hr
- Vd/F ([3]; female): 34.2 L
- AUC0-24, C0, Cmax and C24 during the 3rd trimester compared to postpartum [3]: decreased
- CL/F [3]: 6.8 L/h
- Cl/F during the 3rd trimester compared to postpartum [3]: increased

Compound: CC(C)(C)NC(=O)[C@@H]1C[C@@H]2CCCC[C@@H]2CN1C[C@@H](O)[C@H](Cc1ccccc1)NC(=O)[C@H](CC(N)=O)NC(=O)c1ccc2ccccc2n1 [saquinavir]
- pregnant subjects achieving adequate trough concentrations ([1]; saquinavir 1200 mg/ritonavir 100 mg once daily): 93%

Compound: CC(C)(C)NC(=O)[C@@H]1CN(Cc2cccnc2)CCN1C[C@@H](O)C[C@@H](Cc1ccccc1)C(=O)N[C@H]1c2ccccc2C[C@H]1O [indinavir]
- AUC lower during pregnancy compared to postpartum ([1]; unboosted): 68%

Compound: COC(=O)N[C@H](C(=O)N[C@@H](Cc1ccccc1)[C@@H](O)CN(Cc1ccc(-c2ccccn2)cc1)NC(=O)[C@@H](NC(=O)OC)C(C)(C)C)C(C)(C)C [Atazanavir]
- infants HIV-uninfected ([4]; 38 infants, status indeterminate for one): Thirty-seven
- Undetectable (<20, 50, 75 or 400) plasma HIV-1 RNA, N (%) ([4]; delivery, with tenofovir): 17 (89%) ^‡
- Undetectable (<20, 50, 75 or 400) plasma HIV-1 RNA, N (%) ([4]; delivery, with tenofovir, listed as atazanavir): 17 of 19
- Undetectable (<20, 50, 75 or 400) plasma HIV-1 RNA, N (%) ([4]; delivery, without tenofovir): 11 (69%) ^†
- Undetectable (<20, 50, 75 or 400) plasma HIV-1 RNA, N (%) ([4]; delivery, without tenofovir, listed as atazanavir): 11 of 16
- Undetectable (<20, 50, 75 or 400) plasma HIV-1 RNA, N (%) ([4]; postpartum, with tenofovir): 14 (100%) ^++
- Undetectable (<20, 50, 75 or 400) plasma HIV-1 RNA, N (%) ([4]; postpartum, without tenofovir): 8 (73%) ^+
- Undetectable (<20, 50, 75 or 400) plasma HIV-1 RNA, N (%) ([4]; third trimester, with tenofovir): 15 (79%) ^§
- Undetectable (<20, 50, 75 or 400) plasma HIV-1 RNA, N (%) ([4]; third trimester, without tenofovir): 13 (72%) ^**
- Postpartum plasma HIV-1 RNA ([4]; with tenofovir, median (range), N=14): <75 (<20 - <400) copies/mL
- Delivery plasma HIV-1 RNA [4, 8]: <75 (<20 – 116) copies/mL
- third trimester plasma HIV-1 RNA [4, 8]: <50 (<20 – 1630) copies/mL
- Delivery plasma HIV-1 RNA ([4]; without tenofovir, median (range), N=16): <62.5 (<50 - 29933) copies/mL
- third trimester plasma HIV-1 RNA ([4]; without tenofovir, median (range), N=18): <62.5 (<50 - 19314) copies/mL
- Grade 3 or 4 hyperbilirubinemia [5]: 14 subjects
- Grade 3 or 4 toxicities [5]: 16 subjects
- Tmax [2]: 4 h
- estimated 10th percentile AUC0-24 ([1]; non-pregnant adult populations, standard dose): 29400 ng·h/mL
- mean AUC ([1]; non-pregnant historical controls taking the standard dose): 57000 ng·h/mL
- geometric mean AUC ([1]; nonpregnant HIV infected adults): 46100 ng·h/mL
- AUC ([1]; postpartum, ref Eley, 10): 57200 ng·h/mL
- mean AUC ([1]; postpartum, ref Ripamonti, 9): 30500 ng·h/mL
- geometric mean AUC ([1]; third trimester, 12 women, ref Eley et al, 10): 26600 ng·h/mL
- CL/F, one-compartment ([6]; with tenofovir, postpartum): 7.2 L/h
- CL/F, one-compartment ([6]; with tenofovir, second trimester): 14.5 L/h
- CL/F, one-compartment ([6]; with tenofovir, third trimester): 9.9 L/h
- CL/F, one-compartment ([6]; without tenofovir, postpartum): 4.9 L/h
- CL/F, one-compartment ([6]; without tenofovir, second trimester): 3.1 L/h
- CL/F, one-compartment ([6]; without tenofovir, third trimester): 6.7 L/h
- Kp [7]: 0.18
- concentration in cord blood [7]: 0.16 (<0.047 – 0.42) mcg/mL
- concentration in maternal delivery plasma [7]: 0.83 (0.11 - 2.36) mcg/mL
- ratio of concentration in cord blood to that in maternal delivery plasma [7]: 0.18 (0.04 – 0.45)
- additional reduction of AUC0-24 and Cmin when coadministered with tenofovir ([3]; female): 25%
